Results from US20240409542A1, “NOVEL COMPOUNDS” (Sitryx Therapeutics Limited, priority 2021, published 2024).
≈ marks a conversion by molar mass, not a printed value.

Experiments:
[1] = Kinetic aqueous solubility; settings: kinetic from dmso stock, Kinetic solubility (Ksol), (μg/ml), PBS pH 7.4, 200 μM (2% DMSO), RT
Experimental: Phosphate buffered saline (PBS) pH 7.4 was prepared using PBS tablets as per the manufacturer's instructions. Compounds and marker stocks are prepared at 10 mM in DMSO.
Compounds were incubated at 200 μM (2% DMSO) in Millipore—MSS LB PC 10 or Porvair—ref: 36004 plates in the presence of the prepared PBS pH 7.4 solution for 1.5 h, at RT, with gentle shaking. […] The samples were then analysed in a 96 well UV Star analysis plate on a plate reader from 220 nm to 500 nm at 10 nm increments.
The concentration of the samples was calculated against the standard curves.

[2] = biological target: recombinant human PKM2 (Homo sapiens (Human), UniProt P14618); experiment: Human PKM2 activation assay (Kinase-Glo Plus luminescence); assay type: biochemical; settings: for EC50: activation of recombinant human PKM2, 4-parameter logistic fit, read-out: hPKM2 EC50; for Emax: read-out: hPKM2 Emax (%)
Sequence of recombinant human PKM2 (P14618 whole entry): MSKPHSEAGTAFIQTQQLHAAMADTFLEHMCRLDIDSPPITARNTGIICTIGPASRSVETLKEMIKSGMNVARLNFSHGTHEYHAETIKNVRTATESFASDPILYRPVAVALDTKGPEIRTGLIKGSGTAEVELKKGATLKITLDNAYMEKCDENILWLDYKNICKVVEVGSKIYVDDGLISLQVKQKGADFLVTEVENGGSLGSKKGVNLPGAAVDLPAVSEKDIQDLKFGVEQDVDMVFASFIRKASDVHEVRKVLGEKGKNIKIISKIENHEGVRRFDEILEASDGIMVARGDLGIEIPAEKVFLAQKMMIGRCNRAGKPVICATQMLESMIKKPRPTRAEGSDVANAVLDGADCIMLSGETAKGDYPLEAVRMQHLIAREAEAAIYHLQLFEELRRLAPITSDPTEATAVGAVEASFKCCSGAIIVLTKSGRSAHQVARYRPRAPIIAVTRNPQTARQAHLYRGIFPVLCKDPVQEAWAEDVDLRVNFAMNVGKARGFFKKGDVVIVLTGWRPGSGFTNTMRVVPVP
Experimental: Compound activation of recombinant human PKM2 pyruvate kinase activity was determined by biochemical assay. N-terminal His-tagged hPKM2 was sourced from R&D Systems and its substrates phosphoenolpyruvate (PEP) and ADP from Sigma-Aldrich and 2BScientific Ltd, respectively. The Kinase-Glo® Plus luminescence assay was from Promega. All other reagents were from Sigma-Aldrich. Test Compounds were prepared as 10 mM DMSO stocks and dilution series prepared in DMSO for direct dilution into Assay Buffer comprising 50 mM imidazole, 50 mM KCl, 7 mM MgCl2, 0.01% Tween20, 0.05% BSA (pH 7.2).
Human PKM2 was diluted into Assay Buffer comprising 50 mM imidazole, 50 mM KCl, 7 mM MgCl2, 0.01% Tween20, 0.05% BSA (pH 7.2) to a final concentration of 5 pM. Enzyme-Assay Buffer mix was dispensed into a 384-well shallow-well white-walled plate (PerkinElmer) and Test Compounds added by acoustic dispense (Echo®, Labcyte Inc.).
After 60 minutes' incubation on an orbital shaker (300 rpm, 26° C.), enzyme activity was quantified by the luminescent detection of generated ATP. Kinase-Glo® Plus reagent was added to each well and the plates incubated for a further 15 minutes on an orbital shaker in the dark (300 rpm, 26° C.) before luminescence measurement on a plate reader (PHERAstar® FSX, BMG Labtech).
EC50 and Emax values were determined from 4-parameter logistic fits of compound concentration-response curves.

[3] = phosphate buffered saline (PBS) pH 7.4, pH 7.4, aqueous buffer

solubility kinetic at 1.5 h [1, 3] [µg/mL]	EC50 [2] [nM]	Emax [2] [%]	solubility kinetic at 1.5 h ([1]; phosphate buffered saline, pH 7.4, aqueous buffer) [µg/mL]	SMILES
38 (≈ 92.9 µM)	702	88.5	–	Cn1c2c(c3cnn(Cc4ccsc4CO)c(=O)c31)CCN(S(C)(=O)=O)C2 [Example 13, 3-((2-(hydroxymethyl)thiophen-3-yl)methyl)-5-methyl-7-(methylsulfonyl)-3,5,6,7,8,9-hexahydro-4H-pyrido[4′,3′:4,5]pyrrolo[2,3-d]pyridazin-4-one]
41.3 (≈ 98.1 µM)	512	102	–	Cn1c2c(c3cnn(Cc4ccsc4C(N)=O)c(=O)c31)CCN(S(C)(=O)=O)C2 [Example 14, 3-((5-methyl-7-(methylsulfonyl)-4-oxo-4,5,6,7,8,9-hexahydro-3H-pyrido [4′,3′:4,5]pyrrolo[2,3-d]pyridazin-3-yl)methyl)thiophene-2-carboxamide]
2.49 (≈ 6.05 µM)	99	99.9	–	Cn1c2c(c3cnn(Cc4c[nH]c5ccccc45)c(=O)c31)CCN(S(C)(=O)=O)C2 [Example 15, 3-((1H-indol-3-yl)methyl)-5-methyl-7-(methylsulfonyl)-3,5,6,7,8,9-hexahydro-4H-pyrido[4′,3′:4,5]pyrrolo[2,3-d]pyridazin-4-one]
7.58 (≈ 18.4 µM)	129	76.6	–	Cn1c2c(c3cnn(Cc4coc5ccccc45)c(=O)c31)CCN(S(C)(=O)=O)C2 [Example 16, 3-(benzofuran-3-ylmethyl)-5-methyl-7-(methylsulfonyl)-3,5,6,7,8,9-hexahydro-4H-pyrido[4′,3′:4,5]pyrrolo[2,3-d]pyridazin-4-one]
73.1 (≈ 180 µM)	901	98.8	–	Cn1c2c(c3cnn(Cc4n[nH]cc4C(N)=O)c(=O)c31)CCN(S(C)(=O)=O)C2 [Example 17, 3-((5-methyl-7-(methylsulfonyl)-4-oxo-4,5,6,7,8,9-hexahydro-3H-pyrido [4′,3′:4,5]pyrrolo[2,3-d]pyridazin-3-yl)methyl)-1H-pyrazole-4-carboxamide]
18.3 (≈ 40.5 µM)	394	58.7	–	Cn1c2c(c3cnn(Cc4cccc(S(N)(=O)=O)c4)c(=O)c31)CCN(S(C)(=O)=O)C2 [Example 18, 3-((5-methyl-7-(methylsulfonyl)-4-oxo-4,5,6,7,8,9-hexahydro-3H-pyrido [4′,3′:4,5]pyrrolo[2,3-d]pyridazin-3-yl)methyl)benzenesulfonamide]
8.43 (≈ 20.4 µM)	272	111	–	Cn1c2c(c3cnn(Cc4n[nH]c5ccccc45)c(=O)c31)CCN(S(C)(=O)=O)C2 [Example 20, 3-((1H-indazol-3-yl)methyl)-5-methyl-7-(methylsulfonyl)-3,5,6,7,8,9-hexahydro-4H-pyrido[4′,3′:4,5]pyrrolo[2,3-d]pyridazin-4-one]
3.94 (≈ 9.55 µM)	342	99.5	–	Cn1c2c(c3cnn(Cc4ccc5cc[nH]c5n4)c(=O)c31)CCN(S(C)(=O)=O)C2 [Example 25, 3-((1H-pyrrolo[2,3-b]pyridin-6-yl)methyl)-5-methyl-7-(methylsulfonyl)-3,5,6,7,8,9-hexahydro-4H-pyrido[4′,3′:4,5]pyrrolo[2,3-d]pyridazin-4-one]
> 83	372	81.1	–	C[C@H](N)c1cccc(Cn2ncc3c4c(n(C)c3c2=O)CN(S(C)(=O)=O)CC4)c1 [Example 26, (S)-3-(3-(1-aminoethyl)benzyl)-5-methyl-7-(methylsulfonyl)-3,5,6,7,8,9-hexahydro-4H-pyrido[4′,3′:4,5]pyrrolo[2,3-d]pyridazin-4-one]
18.8 (≈ 41.8 µM)	423	75.3	–	Cn1c2c(c3cnn(Cc4cccc(S(C)(=O)=O)c4)c(=O)c31)CCN(S(C)(=O)=O)C2 [Example 31, 5-methyl-7-(methylsulfonyl)-3-(3-(methylsulfonyl)benzyl)-3,5,6,7,8,9-hexahydro-4H-pyrido[4′,3′:4,5]pyrrolo[2,3-d]pyridazin-4-one]
16.2 (≈ 39.2 µM)	365	94.6	–	Cn1c2c(c3cnn(Cc4cccc5[nH]ncc45)c(=O)c31)CCN(S(C)(=O)=O)C2 [Example 32, 3-((1H-indazol-4-yl)methyl)-5-methyl-7-(methylsulfonyl)-3,5,6,7,8,9-hexahydro-4H-pyrido[4′,3′:4,5]pyrrolo[2,3-d]pyridazin-4-one]
19.8 (≈ 46 µM)	–	96.5	–	Cn1c2c(c3cnn(Cc4cccc(C(C)(C)O)c4)c(=O)c31)CCN(S(C)(=O)=O)C2 [Example 33, 3-(3-(2-hydroxypropan-2-yl)benzyl)-5-methyl-7-(methylsulfonyl)-3,5,6,7,8,9-hexahydro-4H-pyrido[4′,3′:4,5]pyrrolo[2,3-d]pyridazin-4-one]
–	759	93.2	–	Cn1c2c(c3cnn(Cc4c[nH]c5ccc(F)cc45)c(=O)c31)CCN(S(C)(=O)=O)C2 [Example 38, 3-((5-fluoro-1H-indol-3-yl)methyl)-5-methyl-7-(methylsulfonyl)-6,7,8,9-tetrahydro-3H-pyrido[4′,3′:4,5]pyrrolo[2,3-d]pyridazin-4(5H)-one]

Further lines, the molecule ahead of its results:

SMILES	solubility kinetic at 1.5 h [1, 3] [µg/mL]	EC50 [2] [nM]	Emax [2] [%]	solubility kinetic at 1.5 h ([1]; phosphate buffered saline, pH 7.4, aqueous buffer) [µg/mL]
Cn1c2c(c3cnn(Cc4cccc(N5CCCC5)n4)c(=O)c31)CCN(S(C)(=O)=O)C2 [Example 19, 5-methyl-7-(methylsulfonyl)-3-((6-(pyrrolidin-1-yl)pyridin-2-yl)methyl)-3,5,6,7,8,9-hexahydro-4H-pyrido[4′,3′:4,5]pyrrolo[2,3-d]pyridazin-4-one]	5.42 (≈ 12.2 µM)	869	63.8	–
COc1ccc(Cn2ncc3c4c(n(C)c3c2=O)CN(S(=O)(=O)c2ccccc2)CC4)c(F)c1 [Example 21, 3-(2-fluoro-4-methoxybenzyl)-5-methyl-7-(phenylsulfonyl)-3,5,6,7,8,9-hexahydro-4H-pyrido[4′,3′:4,5]pyrrolo[2,3-d]pyridazin-4-one]	1.04 (≈ 2.16 µM)	986	71.4	–
COc1ccc(S(=O)(=O)N2CCc3c(n(C)c4c(=O)n(Cc5ccsc5C(N)=O)ncc34)C2)cc1 [Example 22, 3-((7-((4-methoxyphenyl)sulfonyl)-5-methyl-4-oxo-4,5,6,7,8,9-hexahydro-3H-pyrido[4′,3′:4,5]pyrrolo[2,3-d]pyridazin-3-yl)methyl)thiophene-2-carboxamide]	2.53 (≈ 4.93 µM)	385	76.8	–
COc1ccc(S(=O)(=O)N2CCc3c(n(C)c4c(=O)n(Cc5ccc6c(c5)CCO6)ncc34)C2)cc1 [Example 23, 3-((2,3-dihydrobenzofuran-5-yl)methyl)-7-((4-methoxyphenyl)sulfonyl)-5-methyl-3,5,6,7,8,9-hexahydro-4H-pyrido[4′,3′:4,5]pyrrolo[2,3-d]pyridazin-4-one]	–	313	58.3	–
Cn1c2c(c3cnn(Cc4ccc5c(c4)CC(C)(C)O5)c(=O)c31)CCN(S(C)(=O)=O)C2 [Example 24, 3-((2,2-dimethyl-2,3-dihydrobenzofuran-5-yl)methyl)-5-methyl-7-(methylsulfonyl)-3,5,6,7,8,9-hexahydro-4H-pyrido[4′,3′:4,5]pyrrolo[2,3-d]pyridazin-4-one]	–	188	90.9	–
COCCS(=O)(=O)N1CCc2c(n(C)c3c(=O)n(Cc4ccc(OC)nc4)ncc23)C1 [Example 27, 7-((2-methoxyethyl)sulfonyl)-3-((6-methoxypyridin-3-yl)methyl)-5-methyl-3,5,6,7,8,9-hexahydro-4H-pyrido[4′,3′:4,5]pyrrolo[2,3-d]pyridazin-4-one]	–	919	78	–
COCCNS(=O)(=O)N1CCc2c(n(C)c3c(=O)n(Cc4ccc(OC)nc4)ncc23)C1 [Example 28, N-(2-methoxyethyl)-3-((6-methoxypyridin-3-yl)methyl)-5-methyl-4-oxo-3,4,5,6,8,9-hexahydro-7H-pyrido[4′,3′:4,5]pyrrolo[2,3-d]pyridazine-7-sulfonamide]	> 92.5	385	56.4	–
COCCS(=O)(=O)N1CCc2c(n(C)c3c(=O)n(Cc4c[nH]c5cnccc45)ncc23)C1 [Example 29, 3-((1H-pyrrolo[2,3-c]pyridin-3-yl)methyl)-7-((2-methoxyethyl)sulfonyl)-5-methyl-6,7,8,9-tetrahydro-3H-pyrido[4′,3′:4,5]pyrrolo[2,3-d]pyridazin-4(5H)-one]	–	280	89	37.5 (≈ 82 µM)
COc1ccc(S(=O)(=O)N2CCc3c(n(C)c4c(=O)n(Cc5c[nH]c6cnccc56)ncc34)C2)cc1 [Example 35, 3-((1H-pyrrolo[2,3-c]pyridin-3-yl)methyl)-7-((4-methoxyphenyl)sulfonyl)-5-methyl-3,5,6,7,8,9-hexahydro-4H-pyrido[4′,3′:4,5]pyrrolo[2,3-d]pyridazin-4-one]	–	569	78.1	–
